The results in this text go back to US20260327214A1, “1,3,4-OXADIAZOLE DERIVATIVE COMPOUNDS AS HISTONE DEACETYLASE 6 INHIBITOR, AND USES THEREOF” (CHONG KUN DANG PHARMACEUTICAL CORP., priority 2022, published 2026).

Test [1] addresses T1, human recombinant HDAC1 (Homo sapiens, UniProt Q13547).
T1 construct: purchased Enzo Life Science BML-SE456
Description: HDAC1 enzyme activity inhibition test (HDAC Fluorometric Drug Discovery Kit). The format is biochemical. To be noted: 30° C., 60 minutes, 10 μM substrate. In a few lines: (§1)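 IC50 derived from fluorescence (Ex 360, Em 460) following 30 min development with Developer II. Each reaction held 0.3 μg human recombinant HDAC1 or HDAC6, 10 μM Fluor de Lys SIRT1 substrate and 5-fold serially diluted compound, incubated 60 min at 30 °C.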

Test [2] deals with T2, human recombinant HDAC6 (Homo sapiens, UniProt Q9UBN7).
T2 construct: purchased Calbiochem 382180
T2 sequence (Q9UBN7 1-1215): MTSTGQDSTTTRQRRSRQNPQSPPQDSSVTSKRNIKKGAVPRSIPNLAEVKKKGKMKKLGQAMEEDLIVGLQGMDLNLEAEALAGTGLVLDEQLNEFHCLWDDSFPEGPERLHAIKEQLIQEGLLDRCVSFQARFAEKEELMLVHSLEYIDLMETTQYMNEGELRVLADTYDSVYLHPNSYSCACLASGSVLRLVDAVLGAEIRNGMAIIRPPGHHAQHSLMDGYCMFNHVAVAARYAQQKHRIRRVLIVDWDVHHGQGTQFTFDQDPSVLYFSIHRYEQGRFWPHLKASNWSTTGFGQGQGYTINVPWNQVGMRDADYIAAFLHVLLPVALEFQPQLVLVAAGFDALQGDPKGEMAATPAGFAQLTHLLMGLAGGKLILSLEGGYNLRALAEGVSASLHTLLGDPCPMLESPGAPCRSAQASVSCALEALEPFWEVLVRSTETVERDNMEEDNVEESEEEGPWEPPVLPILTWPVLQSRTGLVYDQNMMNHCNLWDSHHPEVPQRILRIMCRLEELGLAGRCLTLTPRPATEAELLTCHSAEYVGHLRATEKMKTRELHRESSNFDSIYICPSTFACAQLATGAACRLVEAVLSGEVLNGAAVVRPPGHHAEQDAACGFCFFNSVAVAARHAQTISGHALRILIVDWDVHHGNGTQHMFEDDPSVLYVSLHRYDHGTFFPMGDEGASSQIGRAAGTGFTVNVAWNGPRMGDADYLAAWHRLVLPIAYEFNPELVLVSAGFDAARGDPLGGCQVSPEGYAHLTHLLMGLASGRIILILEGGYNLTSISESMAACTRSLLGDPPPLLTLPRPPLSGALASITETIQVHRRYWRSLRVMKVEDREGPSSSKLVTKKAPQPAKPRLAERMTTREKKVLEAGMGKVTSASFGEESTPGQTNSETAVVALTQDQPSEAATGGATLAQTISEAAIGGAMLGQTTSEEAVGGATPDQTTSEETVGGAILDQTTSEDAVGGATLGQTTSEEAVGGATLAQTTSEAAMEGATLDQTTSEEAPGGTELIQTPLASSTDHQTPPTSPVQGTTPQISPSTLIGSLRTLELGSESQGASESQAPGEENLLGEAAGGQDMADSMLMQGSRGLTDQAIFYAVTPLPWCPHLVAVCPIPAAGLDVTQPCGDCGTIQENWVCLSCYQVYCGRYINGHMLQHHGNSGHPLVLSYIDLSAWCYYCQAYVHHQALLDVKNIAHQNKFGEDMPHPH
Nature of the test: HDAC6 enzyme activity inhibition test (HDAC Fluorometric Drug Discovery Kit). The class given is biochemical. Conditions: for HDAC6 selectivity (fold): HDAC6 over HDAC1; for IC50: human recombinant HDAC6, same protocol as HDAC1. In a few lines: as §1

T1 sequence (Q13547 whole entry): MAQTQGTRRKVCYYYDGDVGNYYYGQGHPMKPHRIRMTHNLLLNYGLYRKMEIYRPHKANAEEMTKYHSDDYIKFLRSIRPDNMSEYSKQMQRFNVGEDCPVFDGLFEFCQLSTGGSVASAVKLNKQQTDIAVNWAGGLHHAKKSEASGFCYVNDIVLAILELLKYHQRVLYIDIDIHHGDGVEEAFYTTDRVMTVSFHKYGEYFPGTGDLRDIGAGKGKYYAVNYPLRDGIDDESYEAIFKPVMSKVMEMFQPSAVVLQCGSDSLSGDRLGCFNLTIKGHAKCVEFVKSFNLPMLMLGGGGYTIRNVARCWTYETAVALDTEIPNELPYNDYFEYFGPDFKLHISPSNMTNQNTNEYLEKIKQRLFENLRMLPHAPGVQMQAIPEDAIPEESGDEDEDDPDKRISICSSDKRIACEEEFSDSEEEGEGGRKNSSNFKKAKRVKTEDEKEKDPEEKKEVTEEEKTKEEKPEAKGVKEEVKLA

As for `CC1CCN(Cc2ccc(-c3nn(Cc4ncc(-c5nnc(C(F)F)o5)cc4F)c(=S)o3)cc2)CC1` [Compound 111, 3-[[5-[5-(difluoromethyl)-1,3,4-oxadiazol-2-yl]-3-fluoro-2-pyridyl]methyl]-5-[4-[(4-methyl-1-piperidyl)methyl]phenyl]-1,3,4-oxadiazol-2-thione], the IC50 in test [1] was more than 50000 nM; in test [2], 91 nM. Moreover, the “HDAC6 selectivity (fold)” value in test [2] is 549 fold.

`Fc1cc(-c2nnc(C(F)F)o2)cnc1Cn1nc(-c2ccc3c(c2)CCN(C2CCCCC2)C3)oc1=S` [Compound 138, 5-(2-cyclohexyl-3,4-dihydro-1H-isoquinolin-6-yl)-3-[[5-[5-(difluoromethyl)-1,3,4-oxadiazol-2-yl]-3-fluoro-2-pyridyl]methyl]-1,3,4-oxadiazol-2-thione]: the results for the IC50 in test [1] and in test [2] were more than 50000 nM and 48.7 nM, respectively. Also, in test [2], the “HDAC6 selectivity (fold)” value came out at 1042 fold.

In the case of `O=C1OCC(c2ccccn2)=NN1Cc1ccc(-c2nnc(C(F)F)o2)cn1` [Compound 72, 3-[[5-[5-(difluoromethyl)-1,3,4-oxadiazol-2-yl]-2-pyridyl]methyl]-5-(2-pyridyl)-6H-1,3,4-oxadiazin-2-one], the IC50 in test [1] is more than 50000 nM. In test [2], the “HDAC6 selectivity (fold)” value was found to be 420 fold and the IC50 is 119 nM.

As to `CN1CC(N2CCC(c3cccc(-c4nn(Cc5ccc(-c6nnc(C(F)F)o6)cn5)c(=O)o4)c3F)CC2)C1` [Compound 27, 3-[[5-[5-(difluoromethyl)-1,3,4-oxadiazol-2-yl]-2-pyridyl]methyl]-5-[2-fluoro-3-[1-(1-methylazetidin-3-yl)-4-piperidyl]phenyl]-1,3,4-oxadiazol-2-one], the IC50 in test [1] is more than 50000 nM. Besides, in test [2], the “HDAC6 selectivity (fold)” value was found to be 420 fold and the IC50 was determined as 119 nM.

Consider `CN(C)Cc1cccc(-c2nn(Cc3ccc(-c4nnc(C(F)F)o4)cn3)c(=S)o2)c1` [Compound 84, 3-((5-(5-(difluoromethyl)-1,3,4-oxadiazol-2-yl)pyridin-2-yl)methyl)-5-(3-((dimethylamino)methyl)phenyl)-1,3,4-oxadiazol-2(3H)-thione], for which, in test [1], the IC50 was more than 50000 nM. In addition, in test [2], the “HDAC6 selectivity (fold)” value came out at 497 fold and the 50% inhibitory concentration (IC50) was found to be 101 nM.

With `O=c1oc(-c2ccc(CN3CCCC3)cc2)nn1Cc1ccc(-c2nnc(C(F)F)o2)cn1` [Compound 2, 3-((5-(5-(difluoromethyl)-1,3,4-oxadiazol-2-yl)pyridin-2-yl)methyl)-5-(4-(pyrrolidin-1-ylmethyl)phenyl)-1,3,4-oxadiazol-2(3H)-one], the IC50 in test [1] was more than 50000 nM. Further, in test [2], the “HDAC6 selectivity (fold)” value is on record as 506 fold and the IC50 stood at 98.8 nM.

With `O=c1oc(-c2ccc3cccnc3c2)nn1Cc1ccc(-c2nnc(C(F)F)o2)cn1` [Compound 17, 3-[[5-[5-(difluoromethyl)-1,3,4-oxadiazol-2-yl]-2-pyridyl]methyl]-5-(7-quinolyl)-1,3,4-oxadiazol-2-one], the 50% inhibitory concentration (IC50) in test [1] was more than 50000 nM; in test [2], 45.9 nM. In addition, in test [2], the “HDAC6 selectivity (fold)” value is given as 1089 fold.

`CN(C)Cc1ccc(-c2nn(Cc3ncc(-c4nnc(C(F)F)o4)cc3F)c(=S)o2)cc1` [Compound 107, 3-[[5-[5-(difluoromethyl)-1,3,4-oxadiazol-2-yl]-3-fluoro-2-pyridyl]methyl]-5-[4-[(dimethylamino)methyl]phenyl]-1,3,4-oxadiazol-2-thione]: in test [1], the IC50 was more than 50000 nM. Moreover, in test [2], the “HDAC6 selectivity (fold)” value is 1163 fold and the IC50 was 43 nM.

Regarding `O=c1oc(-c2cccc(N3CCN(C4CCC4)CC3)c2)nn1Cc1ccc(-c2nnc(C(F)F)o2)cn1` [Compound 39, 5-[3-(4-cyclobutylpiperazin-1-yl)phenyl]-3-[[5-[5-(difluoromethyl)-1,3,4-oxadiazol-2-yl]-2-pyridyl]methyl]-1,3,4-oxadiazol-2-one], the IC50 in test [1] was more than 50000 nM; in test [2] it was 82.7 nM. Besides, the “HDAC6 selectivity (fold)” value in test [2] was 605 fold.
